According to patent US10034886B2, “GLP-1 receptor modulators” (Celgene International II SÀRL, priority 2014, dated 2018):
Where two headings read alike, the source gives them in different places.

Target: T1, GLP-1R (Homo sapiens, UniProt P43220)
T1 construct: host or cells: GLP-1R CRE-bla CHO-K1 cells
Experiment: EC20 GLP-1(9-36) PAM cAMP assay: dose response of compound in the presence of fixed concentration of GLP-1(9-36)
Type: cell-based
Conditions: GLP-1R CRE-bla CHO-K1 cells, read-out: EC20 GLP-1(9-36) PAM EC50
Method in brief: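 GLP-1R CRE-bla CHO-K1 cells treated 30 min at 37 °C with 12-point compound dose response plus fixed EC20 GLP-1(9-36), with IBMX, in HBSS/HEPES/0.1% BSA pH 7.4. Total cAMP measured by luminescent detection against standard curve; EC50 and Emax from non-linear regression.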

[1] = dose response of compound in presence of fixed concentration of GLP-1(9-36)
[2] = compound dose response with fixed concentration of GLP-1(9-36)

T1 sequence (P43220 24-463): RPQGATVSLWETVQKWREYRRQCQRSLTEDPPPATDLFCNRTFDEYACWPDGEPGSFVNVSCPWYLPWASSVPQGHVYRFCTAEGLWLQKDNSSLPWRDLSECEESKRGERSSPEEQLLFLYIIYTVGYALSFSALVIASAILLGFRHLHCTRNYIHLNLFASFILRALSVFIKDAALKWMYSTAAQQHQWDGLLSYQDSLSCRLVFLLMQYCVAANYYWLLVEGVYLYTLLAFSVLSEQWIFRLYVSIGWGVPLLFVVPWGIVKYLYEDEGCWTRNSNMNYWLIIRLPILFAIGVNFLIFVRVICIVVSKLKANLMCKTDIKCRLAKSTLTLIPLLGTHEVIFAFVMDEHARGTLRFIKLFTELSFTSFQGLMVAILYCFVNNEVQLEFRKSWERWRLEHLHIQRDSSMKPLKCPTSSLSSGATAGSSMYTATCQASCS
T1 sequence (P01275 100-127 partner limits assumed): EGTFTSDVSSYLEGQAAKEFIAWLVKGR

| Compound | EC50 [1] | EC50 [2] |
| --- | --- | --- |
| CC[C@H]1CC[C@H](c2ccc(N3CCN(c4ccc(C[C@H](NC(=O)c5ccc(C(C)(C)C)s5)C(=O)O)cc4)CC3)cc2)CC1 [Compound 1059, (S)-2-(5-(tert-butyl)thiophene-2-carboxamido)-3-(4-(4-(4-((1r,4r)-4-ethylcyclohexyl)phenyl)piperazin-1-yl)phenyl)propanoic acid] | 5000 to 10000 nM | – |
| CCOC1CC(c2ccc(-c3cnc(-c4ccc(C[C@H](NC(=O)c5ccc(C(C)(C)C)s5)C(=O)N[C@H](C)C(=O)O)cc4)nc3)cc2)C1 (some centres unmarked) [Compound 1130] | 800 to 2500 nM | – |
| CCCCCCCOc1ccc(-c2cnc(-c3ccc(C[C@H](NC(=O)c4ccc(C(C)(C)C)cc4)C(=O)N[C@H](CCCCN)C(=O)O)cc3)nc2)cc1 [Compound 466] | 800 to 2500 nM | – |
| C[C@@H](NC(=O)[C@H](Cc1ccc(-c2ncc(-c3ccc(N4CCCCC4)cc3)cn2)cc1)NC(=O)c1ccc(C(C)(C)C)s1)C(=O)O [Compound 740] | 2500 to 5000 nM | – |
| COc1ccc2cc(-c3cnc(-c4ccc(C[C@H](NC(=O)c5ccc(C(C)(C)C)s5)C(=O)N[C@H](C)C(=O)O)cc4)nc3)ccc2c1 [Compound 997] | 5000 to 10000 nM | – |
| CCCCCCCOc1ccc(-c2cnc(-c3ccc(C[C@H](NC(=O)c4ccc(C(C)(C)C)s4)C(=O)N4CC[C@H]4C(=O)O)cc3)nc2)cc1 [Compound 668] | 800 to 2500 nM | – |
| C[C@@H](NC(=O)[C@H](Cc1ccc(-c2ncc(N3CCN(c4ccc(C(C)(C)C)cc4)C3=O)cn2)cc1)NC(=O)c1ccc(C(C)(C)C)s1)C(=O)O [Compound 1268] | – | < 800 nM |
| CC[C@H]1CC[C@H](c2ccc(-c3cnc(-c4ccc(C[C@H](NC(=O)c5ccc(C(C)(C)C)s5)C(=O)N5CC(C(=O)O)C5)cc4)nn3)cc2)CC1 [Compound 1337] | – | < 800 nM |
| CCCCCCCOc1ccc(-c2cnc(-c3ccc(C[C@H](NC(=O)c4ccc(C(C)(C)C)cc4)C(=O)N[C@@H](CC(=O)O)C(N)=O)cc3)nc2)cc1 [Compound 579] | < 800 nM | – |
| CCOc1ccc2cc(-c3cnc(-c4ccc(C[C@H](NC(=O)c5ccc(C(C)(C)C)s5)C(=O)N[C@H](C)C(=O)O)cc4)nc3)ccc2c1 [Compound 992] | 2500 to 5000 nM | – |
| CCCCCCCOc1ccc(-c2cnc(-c3ccc(C[C@H](NC(=O)c4ccc(C(C)(C)C)cc4)C(=O)N4C[C@H](N(C)C)C[C@H]4C(=O)O)cc3)nc2)cc1 [Compound 622] | 800 to 2500 nM | – |
| CC(C)(C)c1ccc(C(=O)N[C@@H](Cc2ccc(-c3ncc(-c4ccc(-c5cccc(Cl)c5)cc4F)cn3)cc2)C(=O)N2CC(C(=O)O)C2)s1 [Compound 1192] | < 800 nM | – |
| CCCCCCCOc1ccc(-c2cnc(-c3ccc(C[C@H](NC(=O)c4ccc(C(C)(C)C)s4)C(=O)N[C@@H](CCN)C(=O)O)cc3)nc2)cc1 [Compound 410, (S)-4-amino-2-((S)-2-(5-(tert-butyl)thiophene-2-carboxamido)-3-(4-(5-(4-(heptyloxy)phenyl)pyrimidin-2-yl)phenyl)propanamido)butanoic acid] | 800 to 2500 nM | – |
| CCC[C@H]1CC[C@H](C2CCN(c3cnc(-c4ccc(C[C@H](NC(=O)c5ccc(C6CC6)cc5)C(=O)N5CC(C(=O)O)C5)cc4)nc3)CC2)CC1 [Compound 1520] | – | < 800 nM |
| CC(C)c1cccc(-c2cnc(-c3ccc(C[C@H](NC(=O)c4ccc(C(C)(C)C)s4)C(=O)N[C@H](C)C(=O)O)cc3)nc2)c1 [Compound 1033] | 5000 to 10000 nM | – |
| CCCCOc1ccc(C(=O)N[C@@H](Cc2ccc(-c3ncc(-c4ccc(OCCCC(C)C)cc4)cn3)cc2)C(=O)N2CC(C(=O)O)C2)cc1 [Compound 1243] | – | 800 to 2500 nM |
| CCCCCCCOc1cc(C)c(-c2cnc(-c3ccc(C[C@H](NC(=O)c4ccc(C(C)(C)C)s4)C(=O)N[C@H](C)C(=O)O)cc3)nc2)c(C)c1 [Compound 791] | 800 to 2500 nM | – |
| CCC[C@H]1CC[C@H](C2CCN(c3cnc(-c4ccc(C[C@H](NC(=O)c5ccc(C(C)(C)C)s5)C(=O)NC(C)(C)C(=O)O)cc4)nc3)CC2)CC1 [Compound 1466] | – | < 800 nM |

| Compound | EC50 [1] | EC50 [2] |
| --- | --- | --- |
| CCCCCCCOc1ccc(-c2cnc(-c3ccc(C[C@H](NC(=O)c4ccc(C(C)(C)C)s4)C(=O)N[C@@H](CC(=O)N(C)CCN)C(=O)O)cc3)nc2)cc1 [Compound 519] | 800 to 2500 nM | – |
| CCCCCCCOc1ccc(-c2cnc(-c3ccc(C[C@H](NC(=O)c4ccc(C(C)(C)C)s4)C(=O)N4CC(c5nn[nH]n5)C4)cc3)nc2)cc1 [Compound 978] | 800 to 2500 nM | – |
| CC[C@H]1CC[C@H](c2ccc(-c3cnc(-c4ccc(C[C@H](NC(=O)c5ccc(C(C)(C)C)s5)C(=O)N[C@@H](C)C(=O)O)cc4)nc3)cc2)CC1 [Compound 1067] | 800 to 2500 nM | – |
| CCCCCCCOc1ccc(-c2cnc(-c3ccc(C[C@H](NC(=O)Cc4ccc(OCCCC)cc4)C(=O)N[C@H](C)C(=O)O)cc3)nc2)cc1 [Compound 979] | 2500 to 5000 nM | – |
| CC(C)(C)c1ccc(C(=O)N[C@@H](Cc2ccc(-c3ncc(-c4ccc(-c5ccc(F)cc5)cc4)cn3)cc2)C(=O)O)s1 [Compound 1354] | – | 2500 to 5000 nM |
| CCOc1cc(-c2cnc(-c3ccc(C[C@H](NC(=O)c4ccc(C(C)(C)C)s4)C(=O)N[C@H](C)C(=O)O)cc3)nc2)cc(C(F)(F)F)c1 [Compound 1036] | 2500 to 5000 nM | – |
| CCCCCCCOc1ccc(-c2cnc(-c3ccc(C[C@H](NC(=O)c4ccc(OCC)cc4)C(=O)NC(C(=O)O)C(O)c4ccccc4)cc3)nc2)cc1 (some centres unmarked) [Compound 949] | 800 to 2500 nM | – |
| CCCCCCCOc1ccc(-c2cnc(-c3ccc(C[C@H](NC(=O)c4cnn(C(C)(C)C)c4C)C(=O)N4CC[C@H](C(=O)O)C4)cc3)nc2)cc1 [Compound 861] | 2500 to 5000 nM | – |
| CCC[C@H]1CC[C@H](C2CCN(c3cnc(-c4ccc(CC(NC(=O)c5ccc(C(C)(C)C)s5)C(=O)NS(=O)(=O)CC(F)(F)F)cc4)nc3)CC2)CC1 (some centres unmarked) [Compound 1550] | – | < 800 nM |
| CCCCCCCOc1ccc(-c2cnc(-c3ccc(C[C@H](NC(=O)c4ccc(C(C)(C)C)s4)C(=O)NC(C(=O)O)C(O)c4ncccn4)cc3)nc2)cc1 (some centres unmarked) [Compound 913] | < 800 nM | – |
| CCCCCCCOc1ccc2nc(-c3ccc(C[C@H](NC(=O)c4ccc(C(C)(C)C)cc4)C(=O)O)cc3)ncc2c1 [Compound 673, (S)-2-(4-(tert-butyl)benzamido)-3-(4-(6-(heptyloxy)quinazolin-2-yl)phenyl)propanoic acid] | 5000 to 10000 nM | – |
| CCCCCCc1nnc(-c2cnc(-c3ccc(C[C@H](NC(=O)c4ccc(C(C)(C)C)cc4)C(=O)O)cc3)nc2)s1 [Compound 397, (S)-2-(4-(tert-butyl)benzamido)-3-(4-(5-(5-hexyl-1,3,4-thiadiazol-2-yl)pyrimidin-2-yl)phenyl)propanoic acid] | 2500 to 5000 nM | – |
| C[C@@H](NC(=O)[C@H](Cc1ccc(-c2ncc(-c3ccc(C4CCC(F)(F)CC4)cc3)cn2)cc1)NC(=O)c1ccc(C(C)(C)C)s1)C(=O)O [Compound 1142] | < 800 nM | – |
| CC1CCC(C2CCN(c3cnc(-c4ccc(C[C@H](NC(=O)c5ccc(C(C)(C)C)s5)C(=O)N5CC(C(=O)O)C5)cc4)nc3)CC2)CC1 (some centres unmarked) [Compound 1427] | – | < 800 nM |
| CC(C)(C)c1ccc(-c2cnc(-c3ccc(CC(NC(=O)c4ccc(C(C)(C)C)s4)C(=O)O)cc3F)nc2)cc1 (centres unmarked) [Compound 391] | 2500 to 5000 nM | – |
| C[C@@H](NC(=O)[C@H](Cc1ccc(-c2ncc(-c3ncc(-c4ccccc4)cn3)cn2)cc1)NC(=O)c1ccc(C(C)(C)C)s1)C(=O)O [Compound 1132] | 800 to 2500 nM | – |
| CCCCCCCOc1ccc(-c2cnc(-c3ccc(C[C@H](NC(=O)c4ccc(C(C)(C)C)cc4)C(=O)NCC(O)C(=O)O)cc3)nc2)cc1 (some centres unmarked) [Compound 554] | < 800 nM | – |
